Reference: patent US12415939B2, “Nano-adhesive and surface primer compound and use thereof” (The Regents of the University of California, priority 2015, dated 2025)
Several values for one entry are separate records, joined by “and”; a condition that tells them apart may be missing. Equal entries are not always repeated.

Experiments:
[1] = SFA adhesion of cured PMA resin between primer-treated mica surfaces
Protocol: Atomically-smooth muscovite mica sheets were freshly cleaved (thickness of 2-5 μm) and attached on another large freshly cleaved mica backing sheet under a laminar flow hood and placed in a desiccator for clean storage. To ensure use of a fresh surface for each experiment, mica was peeled away from the backing sheet and glued on cylindrical disks using an epoxy glue (EPON 1004 F® from Exxon Chemicals). In each experiment, the mica surfaces were treated with one of the primer solutions, as described for the lap shear experiments, and then mounted in the SFA in a cross cylindrical geometry. In contrast to typical SFA experiments, which use an interferometric method to calculate the disk-disk separation distances and thus the interaction forces, in the SFA used here for adhesion testing, the disk separations were directly measured using semiconductor strain-gauged double cantilever springs (k=1000-10000 N/m)(see FIG. 67). After separating the surfaces, 100 […]1 of comonomer blend was injected between the two surfaces. Then, ˜600 mN of load was applied, followed by visible light curing for 1 min using the portable dental curing lamp (see FIG. 54G). Adhesion strength of cured polymer toward the mica was measured by detaching (unloading) two surfaces. All loading and unloading were performed using a coarse micrometer at the velocity of […]. The SFA measurements were repeated at least 5 times for each condition.

[2] = QCM-D adsorption of primers; type: physicochemical
Protocol: A ‘static cell’ (often called ‘Open Module’) QCM-D (Q-Sense, Biolin Scientific) was employed to quantitatively evaluate the adsorption of each primer onto SiO2 surface using a quartz sensor (QSX 303, Biolin Scientific). Changes in resonance frequency (ΔF) and dissipation (ΔD) of the SiO2 were recorded and used to measure the adsorbed mass and layer viscoelasticity, respectively, of the primer deposited on the sensor. In detail, pure solvent (100 μl) was dropped onto the sensor and equilibrated for ˜20-30 min. Then, 2 wt % primer solution (100 μl) was dropped onto the sensor (this is labeled “Solution Drop-in” in FIG. 51) and equilibrated until the frequency and dissipation signals stabilized. To remove unbound primers, the sensor was rinsed with solvents (this is labeled “Solvent Rinsing” in FIG. 51) and equilibrated until frequency and dissipation signals stabilized.
Mass loss of P3 and P4 during the rinsing was negligible compared to P2 which lost 60% of initial mass, indicating outstanding adsorption efficiency of catechol-containing primers on SiO2 surfaces even compared to mussel foot protein adsorption (˜30% loss of mfp-3s^3). The priming thickness of P4 estimated by QCM-D is ˜3.1 nm which agrees with the average height of AFM images (˜3.5 nm), assuming that QCM-D measures the average thickness of a uniform layer. The smaller average thickness of P4 (˜3.1 nm) compared to the molecular contour length (˜4.8 nm) may be attributed to the flexible alkyl spacer in P4. The possibility of a softer, more flexible layer with P4 is supported by a higher change in dissipation (ΔD) compared to other primers.

[3] = Lap shear test of cured PMA resin on primed tooth enamel; set-up: species or system human
Protocol: (§1) 1 wt % primer solution was spread on mica, glass, tooth enamel, or a silicon wafer and incubated for 1 min, followed by thorough washing with methanol (for MDP, P1-P3) or DMSO (for P4) and drying by flowing nitrogen. The surfaces were exposed to a basic aqueous solution (pH 9, using sodium hydroxide), incubated for 1 min, and drying by flowing nitrogen (see FIG. 52). The methacrylic comonomer blend (Bis-GMA, TEGDMA, DMAEMA and CQ) was packed in a gelatin capsule (size #4, 5-mm diameter, Torpac Inc.) and placed up on top of the primer-treated substrates. The comonomer blend was cured (or crosslinked) for 1 min using a portable dental curing lamp (Foshan Liang Ya Dental Co., LY-A180, 420-480 nm, 1200-2000 mW·cm^−2) (see FIG. 53). Uniaxial compression was applied to the capsule at a rate of 0.05 inch min^−1 using a materials testing system (MTS Bionix 200) until the capsules are separated from the substrate. The lap shear fracture measurements were repeated at least 10 times for each condition.

[4] = AFM height profiles of adsorbed primers; type: physicochemical
Protocol: Each primer solution (1 wt %) was prepared in methanol (for P1-P3) or DMSO (for P4). The primer solution was drop cast onto a freshly cleaved mica or glass surface, and kept at room temperature for 1 min. Subsequently, the surfaces were thoroughly rinsed with the respective solvents and dried with argon. All images, surface profiles and surfaces roughnesses were collected using an Asylum MFP-3D standard system (Asylum Research, Santa Barbara, CA) using silicon cantilevers (FORTGG-50, Applied NanoStructures, Santa Clara, CA) (FIGS. 48C and 49).

[5] = Lap shear test of cured PMA resin on primed mica; conditions: first value of each pair (mica)
Protocol: as §1

[6] = Lap shear test of cured PMA resin on primed silica/glass; conditions: second value of each pair (silica)
Protocol: as §1

[7] = tested on: L929 mammalian fibroblast cells; assay: Cell viability assay on surface treated glass (ISO 10993); type: cell-based; conditions: primed glass surface, 3 days, trypan blue
Protocol: L929 mammalian fibroblast cells were purchased from the Korean Cell Line Bank (Seoul, Korea) and cultured in Roswell Park Memorial Institute (RPMI) 1640 media (Life Technologies) with 10% fetal bovine serum, 25 mM sodium bicarbonate and 1% penicillin-streptomycin. Silane-grafted and Catechol (P3) primed glass slides were prepared by following procedures described in section 6 and 3, respectively. Each glass substrate was placed on the 100π cell culture plate and sterilized by 70% ethanol solution. After equilibrated in phosphate buffered saline (PBS) and media for 5 min each, L929 cells were seeded onto the glass substrates at a density of 1×10^6 cells per plate. Cells were incubated for 3 days in 5% CO2 at 37° C. After 3 days, the substrates were transferred to new culture plates and washed extensively with PBS. Cells were then detached by 0.05% trypsin-EDTA and stained with trypan blue solution to assess cell viability. Living cells are impermeable to the stain, whereas dead cells with compromised membranes turn blue. The number of live cells was counted using a standard hemocytometer. The bare glass slide without any modification served as a control (FIGS. 56A-56B).

[8] = Surface forces apparatus (SFA) cohesion/adhesion between thin films on mica; type: physicochemical; conditions: symmetric films adsorbed from 5 mM, DI water, mica
Protocol: The interaction between two surfaces can be measured with nano-Newton level force resolution and Angstrom level resolution in the separation distance between the surfaces. The details of the SFA techniques have been describe in a work by Israelachvili et al. In a typical SFA experiment (FIG. 2C), the distance and the force between the surfaces are measured simultaneously. To begin with, the instrument is calibrated at large separation distances. When the two surfaces are not interacting, i.e., they are separated by large distances, the change in the separation between them is equal to the distance through which the motor moves the lower surface towards or away from the upper surface (or the upper surface driven by the piezo-tube moves towards the lower surface). However, once the surfaces are close enough to start interacting with each other, the measured separation distance deviates from the expected separation calibrated when there is no force between the surfaces. This deviation is due to the deflection of the double cantilever spring and is directly proportional to the force acting normally between the two opposing surfaces. Thus the normal force can be measured using Hooke's law, F=kΔx, where k is the spring constant of the double-cantilever spring and Δx=Dactual−Dapplied is the deflection of the spring, determined by taking the difference between the applied change in position of one of the surfaces Dapplied and the actual change in distance measured between the surfaces Dactual. The actual distance, Dactual, between the surfaces can be measured by multiple beam interferometry (MBI) and will be discussed below.
The distance between the surfaces, shape of the interface and the refractive index of the media between the surfaces can be accurately determined by Multiple Beam Interferometry (MBI) technique. In this technique, white light is directed through two back-silvered mica surfaces (or uniform and same thickness). As a white light passes between the mica surfaces, it undergoes interference due to the optical trap set up by the back silver on each of these surfaces giving rise to discrete wavelengths of light (FIG. 2C). These wavelengths of light are resolved in a spectrometer creating interference fringes known as ‘fringes of equal chromatic order’ (FECO). Since mica is birefringent, the FECO appears as doublets and termed as β and γ. Alternate fringes are termed as odd and even fringes with odd fringes having nodes at the center and even fringes with anti-nodes in the center. The FECO is then recorded on a camera and analyzed to determine the distance between the surfaces using the following equations: […]
The adhesion/cohesion energy of the synthetic zwitterionic molecules was investigated in SFA (SurForce LLC, Santa Barbara, CA). Two molecularly smooth freshly cleaved back silvered mica surfaces glued on cylindrical silica discs of radius of curvature, R˜2 cm, were mounted in the SFA and 50 μL of a colloidal dispersion of the synthetic molecules in DI water were injected between the surfaces at different concentrations (C=0.5-5 mM) and the forces between the thin films of the molecules were measured by Multiple Beam Interferometry (MBI). The adhesion forces between Z-Cat-C10 molecules on various surfaces, e.g., silica and copper, were also measured by AFM (MFP-3D, Asylum research, Goleta, CA) in DI water and ambient conditions, respectively, at room temperature. AFM probes with a silicon dioxide particle (10, 5, and 1 μm, respectively) on a silicon nitride (SN) cantilever-0.6 N m^−1 were purchased from Novascan Technologies, Inc (Ames, IA). Cantilever spring constants were measured for each force run. Images of Z-Cat-C10 coating on silicon wafer and copper plates were visualized in an AFM. […]

[9] = Stability of isolated compound over time (NMR observation); type: physicochemical; conditions: after isolation
Protocol: Attempts to increase the level of purity by either recrystallization or HPLC were unsuccessful and the compound was used “as is” for further study. It is recommended that extra care is taken to ensure that this compound be protected from atmospheric oxygen, and be used and analyzed immediately after isolation. […] Reaction time=4 days (96 hours) 69% isolated yield.

[10] = n-DTS-modified nano-grooved SiO2, earlier reports; cited from earlier work
[11] = Contact angle measurements on SAM-modified substrates; type: physicochemical; conditions: SAM-modified nano-grooved SiO2
Protocol: The nano-grooved SiO2 substrates passivated with Z-Cat-Ben or Z-Cat-Ben-F SAMs were prepared with the same procedure described above. For the reference substrate, the pre-cleaned and ultraviolet/ozone-treated (for 10 min) nano-grooved SiO2 substrate was passivated with n-decyltrichlorosilane (Gelest Inc.) in toluene solution (1% by volume) at 80° C. for 20 min in ambient air. Then, the substrate was subsequently sonicated in toluene and rinsed with additional toluene several times. Anhydrous chlorobenzene (50 μL) was used as a droplet dropping on the substrates. All contact angle images were taken at the direction perpendicular to nano-grooves in the substrates using Dataphysics OCA 15EC goniometer.

In the case of `C=CC(=O)OCC(O)Cc1ccc(O)c(O)c1` (stereo not shown) [P3, 3-(3,4-dihydroxyphenyl)-2-hydroxypropyl acrylate], the “Pad relative to MDP primer” value [1] is reported as ~8 times, the “Pad relative to Silane primer” value [1] is reported as ~2 times and the “increase in adhesion vs plain mica (no primer)” value [1] is reported as ~10 fold. For the same compound, the “adhesion pressure Pad” value ([1]; n=5) was 201.5±50.2 kPa and ~200 kPa, the “thickness from QCM-D” value [2] was ~1.6 nm and the “mass loss during rinsing” value ([2]; of initial mass) was “negligible”. For the same compound, the “lap shear strength σshear,max” value [3] was 3.0±0.3 MPa, the “adsorption seen by AFM” value ([4]; 1 wt.% solution, mica and glass) was “densely primed” and the AFM height ([4]; mica) was 1-2 nm. For the same compound, the “lap shear strength σshear,max” value [5] was 0.8±0.2 MPa, the “lap shear strength σshear,max” value [6] was 4.2±0.7 MPa and the contact cytotoxicity [7] was “non-toxicity was confirmed”.
In the case of `C[N+](C)(CCCc1ccc(O)c(O)c1)CCOP(=O)([O-])OCCCc1ccc(O)c(O)c1` [Z-Cat-Cat], the “cohesion (or adhesion) energy Wc” value [8] is reported as 8.1±1.3 mJ m^−2 and the stability over time [9] is reported as “highly susceptible to degradation over time”.
For `CCCCCCCCCC[Si](Cl)(Cl)Cl` [n-DTS, n-decyltrichlorosilane, reference compound], the saturation hole mobilities [10] is listed as 23-58 cm^2 V^−1 s^−1 and the “contact angle θ of chlorobenzene droplet” value [11] is listed as “≈ 31 °”.
